Data reported in paper PMC10887108, “Novel Brain-Penetrant, Small-Molecule Tubulin Destabilizers for the Treatment of Glioblastoma” (Biomedicines, 2024).

System: MDR1 (P-gp)
Experiment: MDR1-MDCK cellular permeability
Format: in vitro ADME, canine
Conditions: dog
Protocol: Cellular permeability was tested using the MDR1-MDCK (multidrug-resistant-1, Madin–Darby canine kidney) cell line. Donor solution was added to a 96-well plate (2 μL, 2 mM compound; 6 μL DMSO in 1992 μL of Hanks’ balanced salt solution [HBSS] buffer) and shaken at 1000 rpm for 10 min (final 0.4% DMSO). Transepithelial electrical resistance (TEER) values were used as a quality control check for monolayer integrity. At 3–5 days post-seeding, each MDCK II cell monolayer was tested to ensure the TEER value was ≥ 83 Ω⋅cm^2. The compound donor working solution was centrifuged (4000 rpm for 5 min) to remove any precipitated compound prior to loading donor chambers. Apical and basolateral plates were warmed at 37 °C for about 5 min prior to the initiation of transport (37 °C, 90 min).
Luciferin marker Lucifer Yellow (150 μL, 50 μM Lucifer Yellow in HBSS, pH 7.4) was added to the apical compartment, and transfer buffer (600 μL) was added to the receiver plate (basolateral compartment) and incubated at 37 °C for 60 min. Apical Lucifer Yellow concentrations for LYT0 and LYT60 were measured by a fluorometer (EX 485/EM 535 nm). Donor and receiver samples were analyzed by LC-MS. Metoprolol, enalapril, and quinidine were used as positive controls. The efflux ratio was calculated as the ratio of apparent permeability (basal-to-apical) and apparent permeability (apical-to-basal).

Question: For `CO[C@H]1C[C@@H](C(=O)NC(=O)Nc2ccc(Oc3ccc(Cl)cn3)c(C)c2)C1` [RGN3067], which efflux ratio at 90 min, 2 µM (Papp basal-to-apical / apical-to-basal) is on record?
Answer: 0.61

Question: What about the Papp at 90 min, 2 µM (read-out: apparent permeability coefficient) of the same compound?
Answer: 22.7 ×10⁻⁶ cm/s
